This is an account of results in PubChem BioAssay (NCI).

Experiment in all cases: NCI tumour cell line growth inhibition, 48 h
The subject of assay [1] is M19-MEL melanoma.
Assay [2] relates to DLD-1 colon.
Assay [3] deals with KM20L2 colon.
The subject of assay [4] is SNB-78 CNS.
In assay [5] the test system is DMS 114 small cell lung.
Assay [6] relates to LXFL 529 NSCLC.
For assay [7], the system named is BT-549 breast.
The test system of assay [8] is NCI/ADR-RES ovarian.
Assay [9] has as its system PC-3 prostate.
For assay [10], the system named is MCF7 breast.
Assay [11] concerns MDA-MB-435.
The subject of assay [12] is MDA-MB-231 breast.

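All cell lines were grown in 96-well plates and treated with compound for 48 hours. GI50 marks 50% less growth. TGI: concentration producing complete growth inhibition.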

Regarding `CCc1c(-c2coc(CC/C(C)=C/c3ccccc3)n2)oc(OC)c(C)c1=O`, the TGI is over 100 µM in [1]; over 65.6 µM in assay [2]; over 54.6 µM in assay [3]; over 100 µM in assay [4]; 29.2 µM in assay [5]; over 55.5 µM in assay [6].

Turning to `COc1cc(C(=C2SCCS2)c2nccc3cc(OC)c(OC)cc23)c([N+](=O)[O-])cc1OC`, the TGI in [1], in assay [2], in assay [3], in [4], in [5] and in [6] was over 100 µM throughout.

Take `O=c1cc(-c2ccc[nH]2)[nH]c2cc3c(cc12)OCO3`: the TGI was over 100 µM in [1]; over 100 µM in [2]; 42.6 µM in assay [3]; over 100 µM in assay [5]; over 100 µM in assay [6]. Moreover, the figures for the GI50 in assay [3] and in assay [5] were 20.1 µM and 32.5 µM, respectively.

For the compound `CC(=O)Oc1cc(OC(C)=O)c2cc3c(cc2c1OC(C)=O)C(=O)C1(CCCC1)C3=O`, the TGI in [1] came to 32 µM; in [2], 37 µM; in assay [3], 46.3 µM; in [4], 50 µM; in assay [5] it was 31.6 µM.

As for `CN(Cc1ccccc1)c1nc(=[N+](C)C)ss1`, the TGI in [1], in assay [2], in [3], in assay [4], in assay [5] and in assay [6] was over 100 µM throughout.

With `O/N=C1/C(=C/c2ccc(Cl)cc2)CCCC1C(NO)c1ccc(Cl)cc1` (stereo not drawn), the TGI is 54.7 µM in [1]; over 100 µM in assay [2]; 36.6 µM in assay [3]; 48.5 µM in assay [4]; 81.8 µM in [5]; over 100 µM in assay [6].

Regarding `O=C(Cc1nc2ccccc2s1)C(=O)Nc1ccc(Cl)cc1Cl`, the TGI in [1], in assay [2], in assay [3], in [4] and in [6] was over 100 µM throughout.

For the compound `CCN1CCC(O)(c2ccc(Cl)c(Cl)c2)C(C(=O)c2ccc(Cl)c(Cl)c2)C1` (stereo not drawn), the TGI is 33 µM in assay [2], 36.6 µM in assay [3], 33.9 µM in [5] and 30.1 µM in [6].

Turning to `COc1cc(CCC(=O)NS(=O)(=O)c2ccccc2)cc(OC)c1OC`, the TGI in assay [2], in assay [3], in [4], in [5] and in assay [6] was over 100 µM throughout.

Consider `CC(C)(C)[Si](Nc1ccccc1)(c1ccccc1)c1ccccc1`, for which the TGI in assay [1] was determined as 28.4 µM; in [3] it was 31.7 µM; in [4], 30.4 µM; in assay [5], 26.3 µM.

Regarding `CCCCCCCCCCCCCCCCCCOCC1(COP(=O)([O-])OCC[N+](C)(C)C)CCCO1` (stereo not drawn), the TGI in assay [1] was found to be 10.8 µM; in [2] it was 12.5 µM; in assay [3], 11.9 µM; in assay [4], 29.5 µM; in [5], 18.1 µM; in [6], 16.6 µM.

Consider `CN(C)C(=S)/N=c1\ssc(=S)n1Cc1ccccn1`, for which the TGI in [1], in assay [2], in [4] and in [6] was over 100 µM each time.

With `CN(C)NC(=S)NC12CC3CC(CC(C3)C1)C2`, the TGI in assay [1], in [2], in assay [3], in [4], in assay [5] and in assay [6] was over 100 µM throughout.

`CC(=O)OC1C/C(C)=C/[C@H](O)CC(C)/C=C/[C@@]2(C)CCC(C(C)(C)O)C12` (stereo partly drawn): the TGI in assay [1], in assay [2], in [3], in assay [4], in assay [5] and in assay [6] was over 100 µM each time.

As to `CCCCCCCCCCCCOC(=S)NC`, the TGI in [2] came to 34.3 µM; in assay [3], 33.9 µM; in assay [4], 61.8 µM; in [5] it was 37.5 µM; in [6], 31.4 µM.

On to `Oc1cccc2nc3cc(CN4CCOCC4)c(CN4CCOCC4)cc3nc12`, for which the TGI in assay [1] was 66.5 µM; in assay [2] it was over 100 µM; in assay [3], over 100 µM; in [4] it was over 100 µM; in assay [6], over 100 µM.

Consider `Cc1ccc(C(=O)NC(C)C)cc1N=NN(C)C`, for which the TGI in [1], in assay [2], in assay [3], in [4] and in assay [6] was over 100 µM in each case.

Take `C[C@@]1(CBr)C[C@@](C)(/C=C/Cl)[C@@H](Cl)C[C@H]1Cl`: the TGI turned out to be 25.9 µM in [1]; 27.3 µM in assay [2]; 24.6 µM in assay [3]; 14 µM in [4]; 25.3 µM in [5]; 21.7 µM in [6].

As to `Cn1c(=O)c2[nH]cnc2n(CC(=O)O)c1=O`, the TGI in [1], in assay [2], in assay [3], in assay [4], in [5] and in assay [6] was over 100 µM in each case.

`COC(=O)C(C(=O)C(=O)Nc1ccc(C)cc1C)c1nc2ccc([N+](=O)[O-])cc2[nH]c1=O` (stereo not drawn): the TGI in assay [1], in assay [2], in [3], in assay [4], in assay [5] and in [6] was over 100 µM each time.

Consider `COC(=O)NN=C1C(C)(C)C(=NNC(=O)OC)C1(C)C`, for which the TGI in assay [1] was over 63.3 µM; in [2], over 100 µM; in assay [3], over 100 µM; in [4] it was over 100 µM; in assay [5], over 56.7 µM; in [6], over 100 µM.

As to `O=C(O)C1=C(Cl)c2ccccc2S1(=O)=O`, the TGI in assay [1], in assay [2], in assay [3], in [4], in [5] and in assay [6] was over 100 µM in each case.

Regarding `NC(=O)C12CCC1C1CCCCC12N1CCOCC1` (stereo not drawn), the TGI in [1], in assay [2], in assay [3], in [4] and in assay [6] was over 100 µM throughout.

On to `C/C(CC(=O)Nc1ccc(NC(=O)/C(C)=N/NS(=O)(=O)c2ccc(C)cc2)cc1)=N\NS(=O)(=O)c1ccc(C)cc1`, for which the TGI in assay [1], in [2], in assay [3], in assay [4], in assay [5] and in assay [6] was over 100 µM throughout.

In the case of `C=CC[C@@]1(C#N)C[C@H](C[C@]2(C#N)C[C@H](CCl)OC(C)(C)O2)OC(C)(C)O1`, the TGI in [1], in [2], in assay [3] and in assay [5] was over 100 µM throughout.

`CN(/C(=N\O)c1ccccc1)c1ccccc1`: the TGI is over 100 µM in assay [1]; over 100 µM in [2]; 41.5 µM in [3]; 88.7 µM in [4]; 86.1 µM in [5]; over 100 µM in assay [6].

For `COc1ccc2c(c1)Cc1c-2[nH]c2cc3c(cc2c1=O)OCO3`, the TGI in assay [1] was 34.3 µM; in assay [2], 41.7 µM; in assay [3], 35 µM; in assay [4] it was over 100 µM; in assay [5] it was 17.9 µM; in assay [6], over 100 µM.

On to `CCCCCC/C=C/CCCCCCCc1cccc(O)c1C(=O)O`, for which the TGI in [1], in [2], in assay [3], in assay [4], in assay [5] and in assay [6] was over 100 µM each time.

For the compound `O=C(Nc1cc([N+](=O)[O-])cc([N+](=O)[O-])c1)OC1C2CCC1C1OC1C2` (stereo not drawn), the TGI in [1], in assay [2], in [3], in [4] and in assay [5] was over 50 µM throughout.

As to `CC(=O)NNc1nc(C)c(C(/C=C/c2ccc(Cl)cc2)=N/NC(=S)NN)s1`, the TGI in [1], in assay [2], in assay [3], in assay [4], in assay [5] and in [6] was over 100 µM each time.

`C[n+]1ccc2[nH]c3ccccc3c2c1`: the TGI in assay [1], in assay [2], in [3], in [4] and in assay [6] was over 100 µM throughout.

On to `N#CNc1nc(C(=O)Nc2ccc(Cl)cc2)cc(-c2ccccc2)n1`, for which the TGI in assay [1], in [2], in assay [3], in assay [4], in [5] and in [6] was over 100 µM each time.

Take `Cc1cccc(NC(=O)Cc2nc3ccccc3s2)c1C`: the TGI in assay [1], in assay [2], in [3], in assay [5] and in assay [6] was over 100 µM throughout.

With `NC(=O)N/N=C1/CCCC/C1=C\c1ccccc1`, the TGI in [1], in assay [2], in assay [3], in assay [4], in assay [5] and in assay [6] was over 100 µM each time.

With `O=C(Cc1ccccc1)NN1C(=O)C(Cl)C1c1ccccc1` (stereo not drawn), the TGI is over 100 µM in [1]; over 100 µM in [2]; over 100 µM in assay [3]; over 100 µM in [4]; over 100 µM in [5]; 50.5 µM in assay [6].

Consider `CO[C@H]1/C=C/C[C@H](C)[C@@H](C)S(=O)(=O)NC(=O)c2ccc3c(c2)N(C[C@@H]2CC[C@H]21)C[C@@]1(CCCc2cc(Cl)ccc21)CO3`, for which the GI50 is 2.23 µM in assay [7]; 2.23 µM in [8]; 1.98 µM in assay [9]; 1.43 µM in assay [10]; 1.48 µM in assay [11]; 2.11 µM in assay [12]. Also, the TGI came to 6.99 µM in assay [7]; 6.6 µM in assay [8]; 6.23 µM in [9]; 9.77 µM in assay [10]; 3.14 µM in [11]; 5.64 µM in [12].

On to `CCOC(CN(C)C(=O)OCC(Cl)(Cl)Cl)OCC`, for which the TGI in assay [7], in [8], in assay [9], in [10], in [11] and in assay [12] was over 100 µM throughout.

Turning to `N=C(N)Cn1cnc2ccccc21`, the TGI in assay [1], in [3], in [4], in assay [5] and in assay [6] was over 100 µM throughout.

For the compound `COC(=O)C1CCC(N2C(=O)CCC2C(=O)OC)=N1` (stereo not drawn), the TGI in [1], in [2], in [3], in assay [4] and in [6] was over 100 µM throughout.

As to `CC(C)(C)n1cc(-c2ccnc(NCCCNS(=O)(=O)c3ccc(Cl)cc3)c2)c(-c2cccc(O)c2)n1`, the GI50 in assay [7] was 1.67 µM; in assay [8] it was 1.92 µM; in assay [9], 1.36 µM; in [10] it was 1.84 µM; in assay [11] it was 1.79 µM; in assay [12], 1.87 µM. The TGI came out at 3.16 µM in [7]; 4.62 µM in [8]; 3.69 µM in [9]; 3.91 µM in assay [10]; 3.41 µM in assay [11]; 3.87 µM in [12].
